According to PubChem BioAssay (NCI):
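Results reflect a 48-hour exposure of cells in 96-well plates to compound at five concentrations. TGI: concentration producing complete growth inhibition.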

What was measured:
Assay in all cases: NCI anticancer screen, dose series, 48 h
HT29 colon = tested on: HT29 colon
SK-MEL-28 melanoma = tested on: SK-MEL-28 melanoma
BT-549 breast = tested on: BT-549 breast
UACC-257 melanoma = tested on: UACC-257 melanoma
PC-3 prostate = tested on: PC-3 prostate
HS 578T breast = tested on: HS 578T breast
MDA-MB-231 breast = tested on: MDA-MB-231 breast
LOX IMVI melanoma = tested on: LOX IMVI melanoma
MCF7 breast = tested on: MCF7 breast
M14 melanoma = tested on: M14 melanoma
OVCAR-4 ovarian = tested on: OVCAR-4 ovarian
UO-31 renal = tested on: UO-31 renal
SNB-19 CNS = tested on: SNB-19 CNS
MDA-MB-435 = tested on: MDA-MB-435
NCI-H226 lung = tested on: NCI-H226 lung
NCI/ADR-RES ovarian = tested on: NCI/ADR-RES ovarian
COLO 205 colon = tested on: COLO 205 colon
MOLT-4 leukemia = tested on: MOLT-4 leukemia
SR leukemia = tested on: SR leukemia
K-562 leukemia = tested on: K-562 leukemia
786-0 renal = tested on: 786-0 renal
MDA-N = tested on: MDA-N
HOP-92 NSCLC = tested on: HOP-92 NSCLC
A498 renal = tested on: A498 renal
SN12C renal = tested on: SN12C renal
ACHN renal = tested on: ACHN renal
RXF 393 renal = tested on: RXF 393 renal
TK-10 renal = tested on: TK-10 renal
UACC-62 melanoma = tested on: UACC-62 melanoma
SK-MEL-2 melanoma = tested on: SK-MEL-2 melanoma
A549 NSCLC = tested on: A549 NSCLC
CAKI-1 renal = tested on: CAKI-1 renal
NCI-H522 lung = tested on: NCI-H522 lung
SNB-75 CNS = tested on: SNB-75 CNS
MALME-3M melanoma = tested on: MALME-3M melanoma
NCI-H460 lung = tested on: NCI-H460 lung
HCT-116 colon = tested on: HCT-116 colon
HOP-62 NSCLC = tested on: HOP-62 NSCLC
DU-145 prostate = tested on: DU-145 prostate
SF-268 CNS = tested on: SF-268 CNS
OVCAR-5 ovarian = tested on: OVCAR-5 ovarian
KM12 colon = tested on: KM12 colon
RPMI-8226 leukemia = tested on: RPMI-8226 leukemia
U251 CNS = tested on: U251 CNS
HCT-15 colon = tested on: HCT-15 colon
SK-MEL-5 melanoma = tested on: SK-MEL-5 melanoma
T-47D breast = tested on: T-47D breast
OVCAR-8 ovarian = tested on: OVCAR-8 ovarian
EKVX NSCLC = tested on: EKVX NSCLC
IGROV1 ovarian = tested on: IGROV1 ovarian
SW-620 colon = tested on: SW-620 colon
SK-OV-3 ovarian = tested on: SK-OV-3 ovarian
NCI-H23 lung = tested on: NCI-H23 lung
HCC-2998 colon = tested on: HCC-2998 colon
CCRF-CEM leukemia = tested on: CCRF-CEM leukemia
SF-295 CNS = tested on: SF-295 CNS
OVCAR-3 ovarian = tested on: OVCAR-3 ovarian
SF-539 CNS = tested on: SF-539 CNS

Structure (SMILES): ClC(Cl)(Cl)C(N1CCN(c2ccccc2)CC1)N1CCN(c2ccccc2)CC1
- TGI (HT29 colon): > 100 µM
- TGI (SK-MEL-28 melanoma): > 100 µM
- TGI (BT-549 breast): > 100 µM
- TGI (UACC-257 melanoma): > 100 µM
- TGI (PC-3 prostate): > 100 µM
- TGI (HS 578T breast): > 100 µM
- TGI (MDA-MB-231 breast): > 100 µM
- TGI (LOX IMVI melanoma): > 100 µM
- TGI (MCF7 breast): > 100 µM
- TGI (M14 melanoma): > 100 µM
- TGI (OVCAR-4 ovarian): > 100 µM
- TGI (UO-31 renal): > 100 µM
- TGI (SNB-19 CNS): > 100 µM
- TGI (MDA-MB-435): > 100 µM
- TGI (NCI-H226 lung): > 100 µM
- TGI (NCI/ADR-RES ovarian): > 100 µM
- TGI (COLO 205 colon): > 100 µM
- TGI (MOLT-4 leukemia): > 100 µM
- TGI (SR leukemia): > 100 µM
- TGI (K-562 leukemia): > 100 µM
- TGI (786-0 renal): > 100 µM
- TGI (MDA-N): > 100 µM
- TGI (HOP-92 NSCLC): > 100 µM
- TGI (A498 renal): > 100 µM
- TGI (SN12C renal): > 100 µM
- TGI (ACHN renal): > 100 µM
- TGI (RXF 393 renal): > 100 µM
- TGI (TK-10 renal): > 100 µM
- TGI (UACC-62 melanoma): > 100 µM
- TGI (SK-MEL-2 melanoma): > 100 µM
- TGI (A549 NSCLC): > 100 µM
- TGI (CAKI-1 renal): > 100 µM
- TGI (NCI-H522 lung): > 100 µM
- TGI (SNB-75 CNS): > 100 µM
- TGI (MALME-3M melanoma): > 100 µM
- TGI (NCI-H460 lung): > 100 µM
- TGI (HCT-116 colon): > 100 µM
- TGI (HOP-62 NSCLC): > 100 µM
- TGI (DU-145 prostate): > 100 µM
- TGI (SF-268 CNS): > 100 µM
- TGI (OVCAR-5 ovarian): > 100 µM
- TGI (KM12 colon): > 100 µM
- TGI (RPMI-8226 leukemia): > 100 µM
- TGI (U251 CNS): > 100 µM
- TGI (HCT-15 colon): > 100 µM
- TGI (SK-MEL-5 melanoma): > 100 µM
- TGI (T-47D breast): > 100 µM
- TGI (OVCAR-8 ovarian): > 100 µM
- TGI (EKVX NSCLC): > 100 µM
- TGI (IGROV1 ovarian): > 100 µM

Structure (SMILES): O=C1C(c2c(O)[nH]c3ccc([N+](=O)[O-])cc23)=Nc2ccccc21
- TGI (HT29 colon): > 100 µM
- TGI (SK-MEL-28 melanoma): > 100 µM
- TGI (BT-549 breast): > 100 µM
- TGI (UACC-257 melanoma): > 100 µM
- TGI (PC-3 prostate): > 100 µM
- TGI (HS 578T breast): > 100 µM
- TGI (MDA-MB-231 breast): 91.2 µM
- TGI (LOX IMVI melanoma): > 100 µM
- TGI (MCF7 breast): > 100 µM
- TGI (M14 melanoma): > 100 µM
- TGI (OVCAR-4 ovarian): > 100 µM
- TGI (SW-620 colon): > 100 µM
- TGI (UO-31 renal): > 100 µM
- TGI (SNB-19 CNS): > 100 µM
- TGI (MDA-MB-435): > 100 µM
- TGI (NCI-H226 lung): > 100 µM
- TGI (NCI/ADR-RES ovarian): > 100 µM
- TGI (COLO 205 colon): > 100 µM
- TGI (SK-OV-3 ovarian): > 100 µM
- TGI (MOLT-4 leukemia): > 100 µM
- TGI (NCI-H23 lung): > 100 µM
- TGI (HCC-2998 colon): > 100 µM
- TGI (SR leukemia): > 100 µM
- TGI (K-562 leukemia): > 100 µM
- TGI (786-0 renal): > 100 µM
- TGI (MDA-N): > 100 µM
- TGI (HOP-92 NSCLC): > 100 µM
- TGI (A498 renal): > 100 µM
- TGI (CCRF-CEM leukemia): > 100 µM
- TGI (SN12C renal): > 100 µM
- TGI (ACHN renal): > 100 µM
- TGI (SF-295 CNS): > 100 µM
- TGI (RXF 393 renal): 42.2 µM
- TGI (TK-10 renal): 70.9 µM
- TGI (UACC-62 melanoma): > 100 µM
- TGI (SK-MEL-2 melanoma): > 100 µM
- TGI (A549 NSCLC): > 100 µM
- TGI (CAKI-1 renal): > 100 µM
- TGI (NCI-H522 lung): > 100 µM
- TGI (SNB-75 CNS): 34.2 µM
- TGI (MALME-3M melanoma): > 100 µM
- TGI (NCI-H460 lung): > 100 µM
- TGI (HCT-116 colon): > 100 µM
- TGI (HOP-62 NSCLC): > 100 µM
- TGI (DU-145 prostate): > 100 µM
- TGI (SF-268 CNS): > 100 µM
- TGI (OVCAR-5 ovarian): > 100 µM
- TGI (KM12 colon): > 100 µM
- TGI (RPMI-8226 leukemia): > 100 µM
- TGI (U251 CNS): 49.8 µM
- TGI (HCT-15 colon): > 100 µM
- TGI (SK-MEL-5 melanoma): > 100 µM
- TGI (T-47D breast): > 100 µM
- TGI (OVCAR-8 ovarian): > 100 µM
- TGI (EKVX NSCLC): > 100 µM
- TGI (IGROV1 ovarian): > 100 µM
- TGI (OVCAR-3 ovarian): > 100 µM

Structure (SMILES): C/C(=C\COc1cc(O)c2c(c1)C(=O)c1cc(C)cc(O)c1C2=O)CCC1OC1(C)C (stereo not drawn)
- TGI (HT29 colon): > 100 µM
- TGI (SK-MEL-28 melanoma): > 100 µM
- TGI (BT-549 breast): > 100 µM
- TGI (UACC-257 melanoma): > 100 µM
- TGI (PC-3 prostate): > 100 µM
- TGI (HS 578T breast): > 100 µM
- TGI (MDA-MB-231 breast): > 100 µM
- TGI (LOX IMVI melanoma): > 100 µM
- TGI (MCF7 breast): > 100 µM
- TGI (M14 melanoma): > 100 µM
- TGI (OVCAR-4 ovarian): > 100 µM
- TGI (UO-31 renal): > 100 µM
- TGI (SNB-19 CNS): > 100 µM
- TGI (MDA-MB-435): > 100 µM
- TGI (NCI/ADR-RES ovarian): > 100 µM
- TGI (COLO 205 colon): > 100 µM
- TGI (SK-OV-3 ovarian): > 100 µM
- TGI (MOLT-4 leukemia): > 100 µM
- TGI (NCI-H23 lung): > 100 µM
- TGI (HCC-2998 colon): > 100 µM
- TGI (SR leukemia): > 100 µM
- TGI (K-562 leukemia): > 100 µM
- TGI (786-0 renal): > 100 µM
- TGI (MDA-N): > 100 µM
- TGI (HOP-92 NSCLC): > 100 µM
- TGI (A498 renal): > 100 µM
- TGI (CCRF-CEM leukemia): > 100 µM
- TGI (SN12C renal): > 100 µM
- TGI (ACHN renal): > 100 µM
- TGI (SF-295 CNS): > 100 µM
- TGI (RXF 393 renal): 70.8 µM
- TGI (TK-10 renal): > 100 µM
- TGI (UACC-62 melanoma): > 100 µM
- TGI (SK-MEL-2 melanoma): > 100 µM
- TGI (A549 NSCLC): > 100 µM
- TGI (CAKI-1 renal): 96.5 µM
- TGI (SF-539 CNS): > 100 µM
- TGI (NCI-H522 lung): > 100 µM
- TGI (SNB-75 CNS): > 100 µM
- TGI (MALME-3M melanoma): > 100 µM
- TGI (NCI-H460 lung): > 100 µM
- TGI (HCT-116 colon): > 100 µM
- TGI (HOP-62 NSCLC): > 100 µM
- TGI (DU-145 prostate): > 100 µM
- TGI (SF-268 CNS): > 100 µM
- TGI (OVCAR-5 ovarian): > 100 µM
- TGI (KM12 colon): > 100 µM
- TGI (RPMI-8226 leukemia): > 100 µM
- TGI (U251 CNS): > 100 µM
- TGI (HCT-15 colon): > 100 µM
- TGI (SK-MEL-5 melanoma): > 100 µM
- TGI (T-47D breast): > 100 µM
- TGI (OVCAR-8 ovarian): > 100 µM
- TGI (EKVX NSCLC): > 100 µM
- TGI (IGROV1 ovarian): > 100 µM
- TGI (OVCAR-3 ovarian): > 100 µM
